In assay [1] the test system is primary human mesenchymal stem cells (hMSCs). Kind of assay: Tenocyte differentiation assay (SCXA-positive cells) in hMSCs. The assay is classed as cell-based. The conditions noted are these: for EC50: Homo sapiens, Mesenchymal stem cells, 96 h, hMSCs, 4 days, SCXA positive cells; for percent in parentheses under EC50 >100: given for EC50 >100 μM, meaning not defined in this example. An outline of the steps:
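Passage 3–6 hMSCs were compound-treated, fixed in 4% formaldehyde and stained overnight at 4 °C with anti-SCXA antibody; SCXA-positive cells were counted by imaging. Counts were normalized to the mean of 12 DMSO wells as fold change, averaged over 3 replicate wells per concentration, and curve-fitted for EC50.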

The test system of assay [2] is primary human fibroblasts derived from IPF patients (LL29 cells). Kind of assay: Inhibition of the fibrotic process: αSMA staining in TGF-β1 treated LL29 fibroblasts. The assay is classed as cell-based. Conditions: Homo sapiens, Fibroblast, 96 h; LL29 cells, TGF-β1 20 ng/mL, 4 days, % αSMA positive cells. An outline of the steps: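 LL29 fibroblasts from IPF patients, in F12 medium with 1% FBS, treated with TGF-β1 plus compound; TGF-β1 with DMSO as positive control, DMSO alone as negative control. After 4 days' incubation, SYTOX green nucleic acid stain added at 1 μM final, 30 min at room temperature.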

Assay [3] deals with SW480 colon carcinoma cells. The assay is described as follows: Cell viability assay (CellTiter-Glo) in SW480 colon carcinoma cells. The assay is classed as cell-based, human. The conditions noted are these: Homo sapiens, 96 h, four days. The method in brief: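 Viability was taken from CellTiter-Glo ATP luminescence, read about 12 min after reagent addition, relative to DMSO controls. The cells were Sp5-Luc reporter SW480 colon carcinoma cells, 2,000/well in 1% FBS DMEM, exposed to compound for four days at 37 °C.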
Background: ATP-based viability assays read luminescence as a measure of living cells.

Assay [4] concerns the target DYRK1A kinase (Homo sapiens (Human), UniProt Q13627). Kind of assay: DYRK1A kinase assay (Ser/Thr 18 peptide Z-lyte FRET). The assay is classed as biochemical. The conditions noted are these: read-out: EC50 (method: IC50). An outline of the steps: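 Kinase reactions with compound ran 1 h at room temperature in duplicate, and development reagent was then added for another hour.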

Assay [5] deals with GSK3β kinase (Homo sapiens (Human), UniProt P49841). The assay is described as follows: GSK3β kinase assay (Ser/Thr 09 peptide Z-lyte FRET). The assay is classed as biochemical. The conditions noted are these: read-out: EC50 (method: IC50). The method in brief: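 Non-radioactive Z-lyte FRET read-out, kinase activity expressed as coumarin/fluorescein emission ratio. Compounds incubated with the reaction mixture one hour at room temperature in duplicate, then development buffer added for another hour. IC50 from non-linear regression of dose-response curves.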
Chain of GSK3β kinase (P49841 whole entry): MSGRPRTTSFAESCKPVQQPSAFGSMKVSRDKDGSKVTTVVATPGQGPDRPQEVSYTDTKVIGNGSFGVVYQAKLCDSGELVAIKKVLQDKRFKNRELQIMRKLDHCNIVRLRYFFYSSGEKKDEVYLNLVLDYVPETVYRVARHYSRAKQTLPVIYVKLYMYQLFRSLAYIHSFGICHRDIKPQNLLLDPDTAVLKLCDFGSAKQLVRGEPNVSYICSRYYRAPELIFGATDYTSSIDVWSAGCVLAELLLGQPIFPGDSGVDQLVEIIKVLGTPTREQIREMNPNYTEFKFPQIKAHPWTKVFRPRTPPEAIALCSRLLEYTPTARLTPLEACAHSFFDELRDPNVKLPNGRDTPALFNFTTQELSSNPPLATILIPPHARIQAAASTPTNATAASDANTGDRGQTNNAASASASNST

The test system of assay [6] is IL-6. Kind of assay: IL-6 inhibition in LPS-stimulated human peripheral blood mononuclear cells (HTRF). The assay is classed as cell-based. The conditions noted are these: Homo sapiens, PBMC; for EC50: huPBMCs, LPS 50 ng/mL, 22 hours, IL-6 HTRF; for inhibition at 10 µM: read-out: percent inhibition at 10 μM. An outline of the steps: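 HTRF 665/620 nm ratio, read after 3 h antibody incubation at room temperature, quantified IL-6 released by fresh human PBMCs (1×10e6 cells/mL, 1% FBS-RPMI). The cells got compound, then 50 ng/mL LPS at 2 h, followed by a further 22 h at 37° C. EC50 came from DMSO-normalized readings run in duplicate.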
Background: In TR-FRET formats the signal depends on donor and acceptor labels being close together.

Assay [7] relates to Wnt activity (Sp5-Luc reporter in SW480 cells). The assay is described as follows: Screening assay for Wnt activity: Sp5-Luc reporter gene assay in SW480 colon carcinoma cells. The assay is classed as cell-based, human. Conditions: Homo sapiens, 36 to 48 hours. The method in brief: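 EC50 values come from a variable-slope four-parameter fit of luminescence normalized to DMSO-only wells. The read-out follows 36–48 h incubation at 37 °C, 5% CO2, in DMEM containing 1% fetal bovine serum. Cells are hygromycin-selected SW480 stably expressing firefly luciferase under a Wnt-responsive Sp5 promoter (eight TCF/LEF sites).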

These results are taken from patent US10934297B2, “5-heteroaryl substituted indazole-3-carboxamides and preparation and use thereof” (Samumed, LLC, priority 2018, dated 2021).

SMILES strings stand for the structures. Some results are limits rather than exact numbers.

A word on the EC50: it is the concentration at which the effect is half-maximal. Low readings indicate greater potency, high ones weaker potency. Usually IC50 stands for the point on the concentration scale where inhibition reaches its midpoint. With `CN1CCC(Oc2ccc(NC(=O)c3n[nH]c4c(F)cc(-c5cnn(C)c5)cc34)cc2)CC1` [Compound 152, 7-Fluoro-5-(1-methyl-1H-pyrazol-4-yl)-N-(4-((1-methylpiperidin-4-yl)oxy)phenyl)-1H-indazole-3-carboxamide], the EC50 in assay [1] is greater than 100 µM; in assay [2], 1120 nM; in assay [3] it was 783 nM; in assay [6], 6.85 µM; in assay [7] it was 1460 nM. In assay [1], the “percent in parentheses under EC50 >100” value is “(34.7%)”. The IC50 came out at 38 nM in assay [4] and 65 nM in assay [5].
What is called inhibition is the drop in the measured response relative to a control, in per cent. Regarding `CN1CCC(Oc2ccc(NC(=O)c3n[nH]c4cc(F)c(-c5cn(C)nc5CO)cc34)cc2)CC1` [Compound 153, 6-Fluoro-5-(3-(hydroxymethyl)-1-methyl-1H-pyrazol-4-yl)-N-(4-((1-methylpiperidin-4-yl)oxy)phenyl)-1H-indazole-3-carboxamide], the EC50 in assay [1] was greater than 100 µM; in assay [2] it was greater than 10000 nM; in assay [3], greater than 10000 nM; in assay [6], greater than 10 µM; in assay [7], greater than 10000 nM. In addition, the “percent in parentheses under EC50 >100” value in assay [1] is recorded as “(20.7%)”. Also, the IC50 was 1210 nM in assay [4] and greater than 10000 nM in assay [5]. In assay [6], the inhibition at 10 µM was 3.7%.
For `Cn1cc(-c2cc3c(C(=O)Nc4cccc(OCCN5CCCC5)c4)n[nH]c3cc2F)cn1` [Compound 154, 6-Fluoro-5-(1-methyl-1H-pyrazol-4-yl)-N-(3-(2-(pyrrolidin-1-yl)ethoxy)phenyl)-1H-indazole-3-carboxamide], the EC50 in assay [1] was greater than 100 µM; in assay [2] it was 1130 nM; in assay [3] it was 414 nM; in assay [6], 1.86 µM; in assay [7], 306 nM. Moreover, the “percent in parentheses under EC50 >100” value in assay [1] is given as “(21.0%)”. Moreover, the half-maximal inhibitory concentration (IC50) in assay [4] was determined as 5 nM; in assay [5], 20 nM.
As for `CN1CCC(Oc2cc(NC(=O)c3n[nH]c4cc(F)c(-c5cnn(C)c5)cc34)ccn2)CC1` [Compound 156, 6-Fluoro-5-(1-methyl-1H-pyrazol-4-yl)-N-(2-((1-methylpiperidin-4-yl)oxy)pyridin-4-yl)-1H-indazole-3-carboxamide], the EC50 turned out to be 2.64 µM in assay [1]; 1380 nM in assay [2]; 64 nM in assay [3]; 4.29 µM in assay [6]; 109 nM in assay [7]. Moreover, the half-maximal inhibitory concentration (IC50) in assay [4] turned out to be 2 nM; in assay [5], 53 nM.
In the case of `CN1CCC(Oc2ncc(NC(=O)c3n[nH]c4cc(F)c(-c5cnn(C)c5)cc34)cc2F)CC1` [Compound 157, 6-Fluoro-N-(5-fluoro-6-((1-methylpiperidin-4-yl)oxy)pyridin-3-yl)-5-(1-methyl-1H-pyrazol-4-yl)-1H-indazole-3-carboxamide], the EC50 in assay [1] is greater than 100 µM; in assay [2] it was 2580 nM; in assay [3], 1300 nM; in assay [6] it was 1.31 µM; in assay [7] it was 1150 nM. Further, the “percent in parentheses under EC50 >100” value in assay [1] is “(35.3%)”. Moreover, the concentration for half-maximal inhibition (IC50) in assay [4] worked out at 1 nM; in assay [5], 20 nM.
Consider `CC(C)n1cc(-c2cc3c(C(=O)Nc4ccc(OC5CCN(C)CC5)cc4)n[nH]c3cc2F)cn1` [Compound 158, 6-Fluoro-5-(1-isopropyl-1H-pyrazol-4-yl)-N-(4-((1-methylpiperidin-4-yl)oxy)phenyl)-1H-indazole-3-carboxamide], for which the EC50 in assay [1] is greater than 100 µM; in assay [2], 1150 nM; in assay [3], 784 nM; in assay [6] it was 5.99 µM; in assay [7] it was 1160 nM. Moreover, the “percent in parentheses under EC50 >100” value in assay [1] is “(17.4%)”. In addition, the half-inhibitory concentration (IC50) in assay [4] came out at 23 nM; in assay [5], 349 nM.
In the case of `CN1CCC(n2cc(-c3ccc4[nH]nc(C(=O)Nc5ccc(F)cc5)c4c3)cn2)CC1` [Compound 159, N-(4-Fluorophenyl)-5-(1-(1-methylpiperidin-4-yl)-1H-pyrazol-4-yl)-1H-indazole-3-carboxamide], the EC50 is greater than 100 µM in assay [1]; 1370 nM in assay [2]; 810 nM in assay [3]; 2.82 µM in assay [6]; 680 nM in assay [7]. The “percent in parentheses under EC50 >100” value in assay [1] is recorded as “(15.5%)”. Further, the IC50 stood at 23 nM in assay [4] and 548 nM in assay [5].
On to `CN1CCC(Oc2ccc(NC(=O)c3n[nH]c4cc(F)c(-c5ccn(C)n5)cc34)cc2)CC1` [Compound 160, 6-Fluoro-5-(1-methyl-1H-pyrazol-3-yl)-N-(4-((1-methylpiperidin-4-yl)oxy)phenyl)-1H-indazole-3-carboxamide], for which the EC50 is greater than 100 µM in assay [1]; 3240 nM in assay [2]; 2600 nM in assay [3]; greater than 10 µM in assay [6]; 3560 nM in assay [7]. Further, in assay [1], the “percent in parentheses under EC50 >100” value was “(18.6%)”. Further, the results for the half-inhibitory concentration (IC50) in assay [4] and in assay [5] were 61 nM and 3260 nM, respectively. Also, the inhibition at 10 µM in assay [6] was 27.9%.
For the molecule `Cc1ncc(-c2ccc3[nH]nc(C(=O)Nc4ccc(OC5CCN(C)CC5)cc4)c3c2)n1C` [Compound 161, 5-(1,2-Dimethyl-1H-imidazol-5-yl)-N-(4-((1-methylpiperidin-4-yl)oxy)phenyl)-1H-indazole-3-carboxamide], the EC50 is greater than 100 µM in assay [1]; 3720 nM in assay [2]; 833 nM in assay [3]; 3.4 µM in assay [6]; 642 nM in assay [7]. Further, the “percent in parentheses under EC50 >100” value in assay [1] is recorded as “(31.8%)”. For the same molecule, the 50% inhibitory concentration (IC50) amounted to 5 nM in assay [4] and 120 nM in assay [5].
As to `Cc1nc(-c2ccc3[nH]nc(C(=O)Nc4ccc(OC5CCN(C)CC5)cc4)c3c2)cs1` [Compound 162, N-(4-((1-Methylpiperidin-4-yl)oxy)phenyl)-5-(2-methylthiazol-4-yl)-1H-indazole-3-carboxamide], the concentration for a half-maximal effect (EC50) in assay [1] is greater than 100 µM; in assay [2], 2640 nM; in assay [3] it was 4600 nM; in assay [6], 7.69 µM; in assay [7] it was greater than 10000 nM. Further, the “percent in parentheses under EC50 >100” value in assay [1] was “(12.7%)”. In addition, the IC50 came out at 141 nM in assay [4] and 5060 nM in assay [5].
Turning to `Cc1ncc(-c2cc3c(C(=O)Nc4ccc(OC5CCN(C)CC5)cc4)n[nH]c3cc2F)s1` [Compound 163, 6-Fluoro-N-(4-((1-methylpiperidin-4-yl)oxy)phenyl)-5-(2-methylthiazol-5-yl)-1H-indazole-3-carboxamide], the EC50 was greater than 100 µM in assay [1]; 1000 nM in assay [2]; 331 nM in assay [3]; 8.83 µM in assay [6]; 1530 nM in assay [7]. Also, the “percent in parentheses under EC50 >100” value in assay [1] is on record as “(40.7%)”. For the same molecule, the IC50 was 4 nM in assay [4] and 94 nM in assay [5].
With `Cc1cc(-c2ccc3[nH]nc(C(=O)Nc4ccc(OC5CCN(C)CC5)cc4)c3c2)sn1` [Compound 164, 5-(3-Methylisothiazol-5-yl)-N-(4-((1-methylpiperidin-4-yl)oxy)phenyl)-1H-indazole-3-carboxamide], the EC50 in assay [1] is greater than 100 µM; in assay [2], 305 nM; in assay [3] it was 268 nM; in assay [6], 1.33 µM; in assay [7], 1380 nM. The “percent in parentheses under EC50 >100” value in assay [1] is “(33.1%)”. Moreover, the half-maximal inhibitory concentration (IC50) is 3 nM in assay [4] and 88 nM in assay [5].
